Patent US5869476A, “Pyrimidinone derivatives” (Boryung Pharmaceutical Co., Ltd., priority 1994, dated 1999)

biological target: T1, angiotensin II receptor (Oryctolagus cuniculus, UniProt P34976); test: inhibition of angiotensin II induced contraction of isolated rabbit aorta rings; assay type: cell-based, New Zealand White rabbit; conditions: test compound incubated 20 minutes, 37° C., pH 7.4, read-out: IC50 (concentration being required to inhibit angiotensin II induced contraction by 50%)
T1 construct: The aorta was cut into 3~4 mm to form ring samples; from tissue; host or cells: isolated aorta rings of New Zealand White rabbits
T1 sequence (P34976 1-359): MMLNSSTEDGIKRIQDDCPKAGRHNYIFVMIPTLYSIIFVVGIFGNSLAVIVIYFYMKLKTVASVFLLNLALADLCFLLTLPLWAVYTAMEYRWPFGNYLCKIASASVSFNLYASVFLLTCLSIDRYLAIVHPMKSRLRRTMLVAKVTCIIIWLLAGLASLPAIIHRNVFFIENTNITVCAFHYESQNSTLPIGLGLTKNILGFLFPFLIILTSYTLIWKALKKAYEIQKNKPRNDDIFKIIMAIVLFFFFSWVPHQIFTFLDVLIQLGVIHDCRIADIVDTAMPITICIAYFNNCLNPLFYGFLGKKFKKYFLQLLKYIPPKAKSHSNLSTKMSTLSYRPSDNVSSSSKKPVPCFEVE
Method: The antagonistic activity of the representative compounds of the invention was evaluated using the methodology describe below.
From New Zealand White rabbits (male or female, 2~2.5 kg), aorta was isolated, and fat and connected tissue were removed therefrom. The aorta was cut into 3~4 mm to form ring samples. The aorta sample was suspended in 20 ml of organ bath (37° C.) containing modified Krebs-Henseleit solution saturated with 95% O2 /5% CO2 (pH 7.4).
The aorta preparation was exposed consecutively to 2 g of tensile strength for 90 minutes intermittently washing the sample with 30 minutes interval and then to 30 mM of KCl to observe contraction response. After washing more than three times, the aorta preparation was again allowed to contract three times for stabilization by adding Angiotensin II ([…]) thereto with 30 minutes interval. The third contraction response to Angiotensin II was considered as control.
10 minutes after the third contraction, the test compound was administered to the aorta preparation, which was incubated for 20 minutes.
Comparing angiotensin II contraction curve obtained from the above inhibition test with that of the control, IC50 (concentration being required to inhibit angiotensin II induced contraction by 50%) was determined for each test compound(Table 1).

Question: Which IC50 does the source give for `CCCCc1nc(C)c(CCC(=O)N2CCC(C(N)=O)CC2)c(=O)n1Cc1ccc(-c2ccccc2-c2nn[nH]n2)cc1` [Compound 68, 2-n-butyl-5-[2'-(4"-aminocarbonylpiperidino)carbonylethyl]-6-methyl-3-[[2'-(1H-tetrazol-5-yl)biphenyl-4-yl]methyl]-pyrimidin-4-(3H)-one] here?
Answer: Its IC50 is 2.29 nM.

Question: How did the IC50 turn out when `CCCCc1nc(C)c(CCC(=O)OCC)c(=O)n1Cc1ccc(-c2ccccc2-c2nnn[nH]2)cc1` [Compound 23, 2-n-butyl-5-(2'-ethoxycarbonylethyl) -6-methyl-3-[[2'-(1H-tetrazol-5-yl)biphenyl-4-yl]methyl]-pyrimidin-4-(3H)-one] was run?
Answer: Its IC50 is 3.5 nM.

Question: For `CCOC(=O)Cc1c(C)nc(CC)n(Cc2ccc(-c3ccccc3-c3nnn[nH]3)cc2)c1=O` [Compound 1, 2-ethyl-5-ethoxycarbonylmethyl-6-methyl-3-[[2'-(1H-tetrazol-5-yl)biphenyl-4-yl]methyl]-pyrimidin-4-(3H)-one], which IC50 is on record?
Answer: Its IC50 is 9.05 nM.

Question: For `CCCCc1nc(C)c(CC(=O)N2CCC[C@H]2C(=O)OC)c(=O)n1Cc1ccc(-c2ccccc2-c2nn[nH]n2)cc1` [Compound 42, 2-n-butyl-5-[(S)-2'-methoxycarbonylpyrrolidinocarbonylmethyl]-6-methyl-3-[[2'-(1H-tetrazol-5-yl)biphenyl-4-yl]methyl]-pyrimidin-4-(3H)-one], which IC50 is on record?
Answer: The IC50 was 2.06 nM.

Question: With `CCCCc1nc(C)c(CC(=O)N2CCCC(C(=O)OCC)C2)c(=O)n1Cc1ccc(-c2ccccc2-c2nn[nH]n2)cc1` (stereo not shown) [Compound 52, 2-n-butyl-5-(3'-ethoxycarbonylpiperidinocarbonylmethyl)-6-methyl-3-[[2'-(1H-tetrazol-5-yl)biphenyl-4-yl]methyl]-pyrimidin-4-(3H)-one] as the compound, how does the IC50 read?
Answer: Its IC50 is 3.56 nM.

Question: How did the IC50 turn out when `CCCCc1nc(C)c(CCC(=O)N2CCN(C/C=C/c3ccccc3)CC2)c(=O)n1Cc1ccc(-c2ccccc2-c2nn[nH]n2)cc1` [Compound 83, 2-n-butyl-5-[2'-(4"-trans-cinnamylpiperazino)carbonylethyl]-6-methyl-3-[[2'-(1H-tetrazol-5-yl)biphenyl-4-yl]methyl]-pyrimidin-4-(3H)-one] was run?
Answer: Its IC50 is 151 nM.

Question: How did the IC50 turn out when `CCCCc1nc(C)c(CCC(=O)N2CCCCC2C(=O)OCC)c(=O)n1Cc1ccc(-c2ccccc2-c2nn[nH]n2)cc1` (stereo not shown) [Compound 67, 2-n-butyl-5-[2'-(2"-ethoxycarbonylpiperidino)carbonylethyl]-6-methyl-3-[[2'-(1H-tetrazol-5-yl)biphenyl-4-yl]methyl]-pyrimidin-4-(3H)-one] was run?
Answer: The IC50 was 30.4 nM.

Question: `CCCCc1nc(C)c(CCC(=O)N2CCCC(C)(C)C2)c(=O)n1Cc1ccc(-c2ccccc2-c2nn[nH]n2)cc1` [Compound 65, 2-n-butyl-5-[2'-(3",3"-dimethylpiperidino)carbonylethyl]-6-methyl-3-[[2'-(1H-tetrazol-5-yl)biphenyl-4-yl]methyl]-pyrimidin-4-(3H)-one] was tested. Which IC50 did it give?
Answer: Its IC50 is 7.6 nM.

Question: `CCCCc1nc(C)c(CC(=O)N2CCOCC2)c(=O)n1Cc1ccc(-c2ccccc2-c2nn[nH]n2)cc1` [Compound 73, 2-n-butyl-5-morpholinocarbonylmethyl-6-methyl-3-[[2'-(1H-tetrazol-5-yl)biphenyl-4-yl]methyl]-pyrimidin-4-(3H)-one] was tested. Which IC50 did it give?
Answer: The IC50 was 1.75 nM.

Question: `CCCCc1nc(C)c(CC(=O)N2CCSC2)c(=O)n1Cc1ccc(-c2ccccc2-c2nn[nH]n2)cc1` [Compound 72, 2-n-butyl-5-thiazolidinocarbonylmethyl-6-methyl-3-[[2'-(1H-tetrazol-5-yl)biphenyl-4-yl]methyl]-pyrimidin-4-(3H)-one] was tested. Which IC50 did it give?
Answer: Its IC50 is 9.13 nM.

Question: Which IC50 does the source give for `CCc1nc(C)c(CC(=O)N(CC)CC)c(=O)n1Cc1ccc(-c2ccccc2-c2nnn[nH]2)cc1` [Compound 4, 2-ethyl-5-diethylaminocarbonylmethyl-6-methyl-3-[[2'-(1H-tetrazol-5-yl)biphenyl-4-yl]methyl]-pyrimidin-4-(3H)-one] here?
Answer: The IC50 was 15.1 nM.

Question: For `CCCCc1nc(C)c(CCC(=O)N2CCCCCCC2)c(=O)n1Cc1ccc(-c2ccccc2-c2nn[nH]n2)cc1` [Compound 71, 2-n-butyl-5-(2'-heptamethyleneiminocarbonylethyl)-6-methyl-3-[[2'-(1 H-tetrazol-5-yl)biphenyl-4-yl]methyl]-pyrimidin-4-(3H)-one], which IC50 is on record?
Answer: The IC50 was 16.8 nM.

Question: Which IC50 does the source give for `CCCCc1nc(C)c(CC(=O)N2CCCCCC2)c(=O)n1Cc1ccc(-c2ccccc2-c2nn[nH]n2)cc1` [Compound 56, 2-n-butyl-5-hexamethyleneiminocarbonylmethyl-6-methyl-3-[[2'-(1H-tetrazol-5-yl)biphenyl-4-yl]methyl]-pyrimidin-4-(3H)-one] here?
Answer: Its IC50 is 3.33 nM.

Question: With `CCCCc1nc(C)c(CCC(=O)O)c(=O)n1Cc1ccc(-c2ccccc2-c2nnn[nH]2)cc1` [Compound 25, 2-n-butyl-5-(2'-carboxyethyl)-6-methyl-3-[[2'-(1H-tetrazol-5-yl)-biphenyl-4-yl]methyl]-pyrimidin-4-(3H)-one] as the compound, how does the IC50 read?
Answer: The IC50 was 9.43 nM.

Question: How did the IC50 turn out when `CCCCc1nc(=O)c(CC(=O)N2CCCCC2)c(C)n1Cc1ccc(-c2ccccc2-c2nn[nH]n2)cc1` [Compound 46, 2-n-butyl-5-piperidinocarbonylmethyl-6-methyl-1-[[2'-(1H-tetrazol-5-yl)biphenyl-4-yl]methyl]-pyrimidin-4-(1H)-one] was run?
Answer: Its IC50 is 405 nM.

Question: With `CCCCc1nc(C)c(CC(=O)N2CCC(Cc3ccccc3)CC2)c(=O)n1Cc1ccc(-c2ccccc2-c2nn[nH]n2)cc1` [Compound 47, 2-n-butyl-5-(4'-benzylpiperidinocarbonylmethyl)-6-methyl-3-[[2'-(1H-tetrazol-5-yl)biphenyl-4-yl]methyl]-pyrimidin-4-(3H) -one] as the compound, how does the IC50 read?
Answer: The IC50 was 128 nM.

Question: How did the IC50 turn out when `CCOC(=O)CCc1c(C)nc(CC)n(Cc2ccc(-c3ccccc3-c3nnn[nH]3)cc2)c1=O` [Compound 5, 2-ethyl-5-(2'-ethoxycarbonylethyl)-6-methyl-3-[[2'-(1H-tetrazol-5-yl)biphenyl-4-yl]methyl]-pyrimidin-4-(3H)-one] was run?
Answer: The IC50 was 30.7 nM.

Question: With `CCCc1nc(C)c(CCC(=O)OCC)c(=O)n1Cc1ccc(-c2ccccc2-c2nn[nH]n2)cc1` [Compound 13, 2-n-propyl-5-(2'-ethoxycarbonylethyl)-6-methyl-3-[[2'-(1H-tetrazol-5-yl)biphenyl-4-yl]methyl]-pyrimidin-4-(3H)-one] as the compound, how does the IC50 read?
Answer: The IC50 was 4.99 nM.

Question: How did the IC50 turn out when `CCCCc1nc(C)c(CC(=O)O)c(=O)n1Cc1ccc(-c2ccccc2-c2nnn[nH]2)cc1` [Compound 19, 2-n-butyl-5-carboxymethyl-6-methyl-3-[[2'-(1H-tetrazol-5-yl)-biphenyl-4-yl]methyl]-pyrimidin-4-(3H)-one] was run?
Answer: Its IC50 is 2.63 nM.

Question: With `CCCCc1nc(C)c(CC(=O)N2[C@H](C)CCC[C@@H]2C)c(=O)n1Cc1ccc(-c2ccccc2-c2nn[nH]n2)cc1` [Compound 50, 2-n-butyl-5-(cis-2',6'-dimethylpiperidinocarbonylmethyl)-6-methyl-3-[[2'-(1H-tetrazol-5-yl)biphenyl-4-yl]methyl]-pyrimidin-4-(3H)-one] as the compound, how does the IC50 read?
Answer: The IC50 was 28.4 nM.

Question: For `CCCCc1nc(C)c(CC(=O)N2C(C)COCC2C)c(=O)n1Cc1ccc(-c2ccccc2-c2nn[nH]n2)cc1` (stereo not shown) [Compound 74, 2-n-butyl-5-(3',5'-dimethylmorpholinocarbonylmethyl)-6-methyl-3-[[2'-(1H-tetrazol-5-yl)biphenyl-4-yl]methyl]-pyrimidin-4-(3H)-one], which IC50 is on record?
Answer: The IC50 was 1.03 nM.

Question: How did the IC50 turn out when `CCCc1nc(=O)c(CC(=O)O)c(C)n1Cc1ccc(-c2ccccc2-c2nnn[nH]2)cc1` [Compound 11, 2-n-propyl-5-carboxymethyl-6-methyl-1-[[2'-(1H-tetrazol-5-yl)-biphenyl-4-yl]methyl]-pyrimidin-4-(1H)-one] was run?
Answer: Its IC50 is 7.71 nM.
